Here are results for one compound from patent publication US7579013B2, “Formulations for coated microprojections containing non-volatile counterions” (Alza Corporation, priority 2003, dated 2009).

Some results are limits rather than exact numbers.

The nature of this series: Solubility in water. The following applies: at pH about 5. The class given is physicochemical.

On to `CC[C@H](C)[C@H](NC(=O)[C@H](CCC(=O)O)NC(=O)[C@H](CO)NC(=O)[C@@H](NC(=O)[C@@H](N)CO)C(C)C)C(=O)N[C@@H](CCC(N)=O)C(=O)N[C@@H](CC(C)C)C(=O)N[C@@H](CCSC)C(=O)N[C@@H](Cc1cnc[nH]1)C(=O)N[C@@H](CC(N)=O)C(=O)N[C@@H](CC(C)C)C(=O)NCC(=O)N[C@@H](CCCCN)C(=O)N[C@@H](Cc1cnc[nH]1)C(=O)N[C@@H](CC(C)C)C(=O)N[C@@H](CC(N)=O)C(=O)N[C@@H](CO)C(=O)N[C@@H](CCSC)C(=O)N[C@@H](CCC(=O)O)C(=O)N[C@@H](CCCN=C(N)N)C(=O)N[C@H](C(=O)N[C@@H](CCC(=O)O)C(=O)N[C@@H](Cc1c[nH]c2ccccc12)C(=O)N[C@@H](CC(C)C)C(=O)N[C@@H](CCCN=C(N)N)C(=O)N[C@@H](CCCCN)C(=O)N[C@@H](CCCCN)C(=O)N[C@@H](CC(C)C)C(=O)N[C@@H](CCC(N)=O)C(=O)N[C@@H](CC(=O)O)C(=O)N[C@H](C(=O)N[C@@H](Cc1cnc[nH]1)C(=O)N[C@@H](CC(N)=O)C(=O)N[C@@H](Cc1ccccc1)C(=O)O)C(C)C)C(C)C` [hPTH(1-34)], for which the “solubility in water (concentration)” value is on record as > 20%.
